The numbers were not newly measured in PMC12749166, “Fragment-based drug design of a bacterial kinase inhibitor capable of increasing the antibiotic sensitivity of clinical isolates” (Communications Chemistry, 2025), which cites them from elsewhere.

One data set deals with APH(3’)-IIIa. Also on record: method as in PMID 11514228. As to conditions: cited from earlier work.
The next data set deals with APH(2”)-Ib. On the set-up: method as in PMID 11514228. As to conditions: at 1 mM; cited from earlier work.
A further data set has as its target 12 different APHs. Also on record: method as in PMID 23758273. As to conditions: all the APHs tested; cited from earlier work.

Consider `COC[C@H]1OC(=O)c2coc3c2[C@@]1(C)C1=C(C3=O)[C@@H]2CCC(=O)[C@@]2(C)C[C@H]1OC(C)=O` [Wortmannin, wortmannin], for which the Inhibition (in general, how much of the control response was suppressed) was “did not affect” in the data set with APH(3’)-IIIa and 90% in the data set on APH(2”)-Ib.
As for `O=c1c(O)c(-c2ccc(O)c(O)c2)oc2cc(O)cc(O)c12` [Quercetin, quercetin], the Ki (usually the dissociation constant of the complex between target and ligand, obtained from inhibition or displacement) on 12 different APHs is 0.07 to 25 µM.
